Data as given in US9833393B2, “Method and compositions for treating skin” (ELC Management LLC, priority 2015, dated 2017).

Test system: per1 gene expression
Assay: per1 gene expression activity, per1-luciferase reporter plasmid in transfected keratinocytes
Type: cell-based, human
Conditions: NHEK, 16 hours incubation, luminescence
Experimental: Normal human epidermal keratinocytes (NHEK) were diluted in EpiLife Media MEP1500CA with supplement S001-5 added (Gibco, Cascade Biologics, Invitrogen) to form a concentration of 3×10^4 and plated onto a black walled 96 well microtiter plate by adding 100 μl in each well. The plate was incubated for 3 hours at 37° C. in 5% CO2. The media was removed and remaining adhered cells rinsed with EpiLife Media MEP1500CA, supplement free. A plasmid solution was prepared by diluting Tris-EDTA pH 8.0 buffer with plasmid pGL4.11 (DNA 2.0, Carlsbad, Calif.) to form a 1 mg/ml solution. This plasmid contained a per1 gene sequence and a luciferase reporter gene sequence. A transfection mixture was prepared by diluting EpiLife Media MEP1500CA, supplement free, to form a solution with 0.31 μg/ml of plasmid (obtained by adding appropriate amount of plasmid solution prepared above), 1.28% Plus™ Reagent (Catalog No. 11514-015, Invitrogen, Carlsbad, Calif.), and 3.22% Lipofectamine™ Transfection Reagent (Catalog No. 18324-012, Invitrogen, Carlsbad, Calif.). Transfection mixture, […] to each well and the plate incubated for 4 hours at 37° C. in 5% CO2. Then 80 μl of EpiLife Media MEP1500CA with supplement S001-5 was added to the well containing the control (media alone), the transfection mixture control (transfection mixture without any active ingredient). Test wells and transfection control wells. To the test wells 80 μl of test material solution (test material diluted in EpiLife Media MEP1500CA with supplement S001-5) was added. The wells were incubated for 16 hours at 37° C. in 5% CO2. Immediately prior to reading, Bright-Glo™ (Pro-Mega, Madison Wis.) was added to each well plate in the same volume as is currently in the well (e.g. a 1:1 dilution). Luminescence was measured in an LMax™ Microplate Luminometer (Molecular Devices, Sunnyvale, Calif.).

COc1ccc2[nH]cc(CCNC(C)=O)c2c1 [melatonin]
increase in per1 (100 uM concentration): 39.2%

alpha bisabolol
increase in per1 (0.01% concentration): 0%
increase in per1 (0.05% concentration): 0%
increase in per1 (0.1% concentration): 0%
